Results from patent US12172983B2, “EGFR inhibitors” (Blueprint Medicines Corporation, priority 2019, dated 2024).
Read-outs that look alike come from different tables or passages of the source.

Legend:
[1] = molecular target: T1, EGFR (L858R T790M C797S) (Homo sapiens, UniProt P00533, C797S/L858R/T790M); experiment: Biochemical EGFR inhibition assay (Caliper mobility shift), EGFR LRTMCS mutant; conditions: inhibitory activity against EGFR LRTMCS mutant; apparent IC50; read-out: Ext Enz LRTMCS
T1 construct: purchased SignalChem E10-122VG
Outline: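 Caliper mobility shift read-out: product and substrate peptides separated by electrophoresis and quantified. Reactions at 25° C. taken to 10–20% peptide phosphorylation, quenched with 35 mM EDTA. Apparent IC50 from percent activity vs log [compound].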

[2] = tested on: phosphorylation of EGFR (Tyr1068) in NCI-H1975 cell line that harbors the EGFR L858R T790M mutations; experiment: NCI-H1975 pEGFR AlphaLISA assay; format: cell-based; conditions: 4-5 hours incubation, read-out: Ext pEGFR H1975
Outline: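 Phospho-EGFR Tyr1068 AlphaLISA readout: lysates taken from compound-treated H1975 cells (L858R T790M EGFR) after a 4-5 h exposure at 37 °C. Cells had adhered overnight beforehand. IC50 derived by plotting % pEGFR inhibition against log compound concentration.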

[3] = Homo sapiens, NCI-H1975, inhibition of phosphorylation of mutant EGFR in NCI-H1975 cells
[4] = inhibition of phosphorylation of mutant EGFR in NCI-H1975 cells

## CO[C@@H]1CN(c2nccc(Nc3cc4c(C(C)C)ccc(N5C[C@H](CS(C)(=O)=O)[C@H]5C)c4cn3)n2)CC[C@@H]1O (single isomer, unassigned) [Compound 99, (3R,4S)-1-[4-({8-[(2R,3S)-3-(methanesulfonylmethyl)-2-methylazetidin-1-yl]-5-(propan-2-yl)isoquinolin-3-yl}amino)pyrimidin-2-yl]-3-methoxypiperidin-4-ol or (3S,4R)-1-[4-({8-[(2R,3S)-3-(methanesulfonylmethyl)-2-methylazetidin-1-yl]-5-(propan-2-yl)isoquinolin-3-yl}amino)pyrimidin-2-yl]-3-methoxypiperidin-4-ol]
[1]
  IC50: ≤ 0.015 µM
[2]; [3]
  IC50: 0.0101 to 0.02 µM

## CC(C)c1ccc(N2C[C@H](CS(C)(=O)=O)[C@H]2C)c2cnc(Nc3ccnc(N4CC[C@@H](OCCO)C(F)(F)C4)n3)cc12 (single isomer, unassigned) [Compound 251]
[1]
  IC50: 0.0151 to 0.02 µM
[2]; [3]
  IC50: ≤ 0.01 µM

## C[C@@H]1[C@@H](CS(C)(=O)=O)CN1c1ccc(C2CC2)c2cc(Nc3ccnc(N4CC[C@@H](O)[C@@](C)(F)C4)n3)ncc12 (single isomer, unassigned) [Compound 90]
[1]
  IC50: ≤ 0.015 µM
[2]; [3]
  IC50: ≤ 0.01 µM

## CCS(=O)(=O)CC1CN(c2ccc(OC)c3cc(Nc4ccnc(N5CC[C@@H](O)[C@@](C)(F)C5)n4)ncc23)C1 (single isomer, unassigned) [Compound 77]
[1]
  IC50: 0.0151 to 0.02 µM
[2]; [3]
  IC50: 0.0301 to 0.05 µM

## CC(C)c1cnc(N2CC([C@H](C)S(C)(=O)=O)C2)c2cnc(Nc3ccnc(N4CC[C@@H](O)[C@@](C)(F)C4)n3)cc12 (single isomer, unassigned) [Compound 126]
[1]
  IC50: ≤ 0.015 µM
[2]; [3]
  IC50: ≤ 0.01 µM

## C[C@H](CO)c1ccc(N2C[C@H](CS(C)(=O)=O)[C@H]2C)c2cnc(Nc3ccnc(N4CC[C@](C)(O)[C@H](F)C4)n3)cc12 (single isomer, unassigned) [Compound 197, (3R,4S)-3-fluoro-1-[4-({5-[(2S)-1-hydroxypropan-2-yl]-8-[(2R,3S)-3-(methanesulfonylmethyl)-2-methylazetidin-1-yl]isoquinolin-3-yl}amino)pyrimidin-2-yl]-4-methylpiperidin-4-ol or (3R,4S)-3-fluoro-1-[4-({5-[(2R)-1-hydroxypropan-2-yl]-8-[(2R,3S)-3-(methanesulfonylmethyl)-2-methylazetidin-1-yl]isoquinolin-3-yl}amino)pyrimidin-2-yl]-4-methylpiperidin-4-ol]
[1]
  IC50: ≤ 0.015 µM
[2]; [3]
  IC50: 0.0301 to 0.05 µM

## CC(C)c1ccc(N2C[C@H](CS(C)(=O)=O)[C@H]2C)c2cnc(Nc3ccnc(N4CC[C@H](O)C[C@@H]4C)n3)cc12 (single isomer, unassigned) [Compound 48, (2R,4R)-1-[4-({8-[(2R,3S)-3-(methanesulfonylmethyl)-2-methylazetidin-1-yl]-5-(propan-2-yl)isoquinolin-3-yl}amino)pyrimidin-2-yl]-2-methylpiperidin-4-ol or (2S,4S)-1-[4-({8-[(2R,3S)-3-(methanesulfonylmethyl)-2-methylazetidin-1-yl]-5-(propan-2-yl)isoquinolin-3-yl}amino)pyrimidin-2-yl]-2-methylpiperidin-4-ol]
[1]
  IC50: ≤ 0.015 µM
[2]; [4]
  IC50: ≤ 0.01 µM

## CCS(=O)(=O)C[C@H]1CN(c2ccc(C(C)C)c3cc(Nc4ccnc(N5CC[C@H](OC)[C@@H](O)C5)n4)ncc23)[C@@H]1C (single isomer, unassigned) [Compound 177, (3S,4S)-1-(4-(8-((2R,3S)-3-(ethylsulfonylmethyl)-2-methylazetidin-1-yl)-5-isopropylisoquinolin-3-ylamino)pyrimidin-2-yl)-4-methoxypiperidin-3-ol or (3R,4R)-1-(4-(8-((2R,3S)-3-(ethylsulfonylmethyl)-2-methylazetidin-1-yl)-5-isopropylisoquinolin-3-ylamino)pyrimidin-2-yl)-4-methoxypiperidin-3-ol]
[1]
  IC50: ≤ 0.015 µM
[2]; [3]
  IC50: ≤ 0.01 µM

## [2H]C([2H])([2H])O[C@@H]1CCN(c2nccc(Nc3cc4c(C5CC5)ccc(N5C[C@H](CS(C)(=O)=O)[C@H]5C)c4cn3)n2)C[C@@H]1F [Compound 315, 5-cyclopropyl-N-(2-((3S,4R)-3-fluoro-4-(^2H3)piperidin-1-yl)pyrimidin-4-yl)-8-((2R,3S)-2-methyl-3-((methylsulfonyl)methyl)azetidin-1-yl)isoquinolin-3-amine]
[1]
  IC50: ≤ 0.015 µM
[2]; [3]
  IC50: ≤ 0.01 µM

## CC(C)c1ccc(N2CC(CS(C)(=O)=O)C2)c2cnc(Nc3ccnc(N4CC[C@H](O)[C@H](F)C4)n3)cc12 [Compound 29, (3R,4S)-3-fluoro-1-[4-({8-[3-(methanesulfonylmethyl)azetidin-1-yl]-5-(propan-2-yl)isoquinolin-3-yl}amino)pyrimidin-2-yl]piperidin-4-ol]
[1]
  IC50: ≤ 0.015 µM
[2]; [3]
  IC50: ≤ 0.01 µM

## CC(C)c1ccc(N2C[C@H](CS(C)(=O)=O)[C@H]2C)c2cnc(Nc3ccnc(N4CCC(OCCN)CC4)n3)cc12 [Compound 168, N-{2-[4-(2-aminoethoxy)piperidin-1-yl]pyrimidin-4-yl}-8-[(2R,3S)-3-(methanesulfonylmethyl)-2-methylazetidin-1-yl]-5-(propan-2-yl)isoquinolin-3-amine]
[1]
  IC50: ≤ 0.015 µM
[2]; [3]
  IC50: 0.0101 to 0.02 µM

## CC(C)c1ccc(N2C[C@H](CS(C)(=O)=O)[C@H]2C)c2cnc(Nc3ccnc(N4CC[C@@H](O)[C@@H](F)C4)n3)cc12 [Compound 62, (3S,4R)-3-fluoro-1-(4-((5-isopropyl-8-((2R,3S)-2-methyl-3-((methylsulfonyl)methyl)azetidin-1-yl)isoquinolin-3-yl)amino)pyrimidin-2-yl)piperidin-4-ol]
[1]
  IC50: ≤ 0.015 µM
[2]; [3]
  IC50: ≤ 0.01 µM

## (R)-methyl({1-[3-({2-[(3R,4S)-3-fluoro-4-methoxypiperidin-1-yl]pyrimidin-4-yl}amino)-5-(propan-2-yl)isoquinolin-8-yl]azetidin-3-yl}methyl)imino-λ^6-sulfanone or (S)-methyl({1-[3-({2-[(3R,4S)-3-fluoro-4-methoxypiperidin-1-yl]pyrimidin-4-yl}amino)-5-(propan-2-yl)isoquinolin-8-yl]azetidin-3-yl}methyl)imino-λ^6-sulfanone [Compound 274]
[1]
  IC50: 0.0151 to 0.02 µM
[2]; [4]
  IC50: 0.0101 to 0.02 µM

## CC(C)c1ccc(N2C[C@H](CS(C)(=O)=O)[C@H]2C)c2cnc(Nc3ccnc(N4CC[C@@H](OC[C@H](C)O)[C@@H](F)C4)n3)cc12 (single isomer, unassigned) [Compound 247, (2S)-1-{[(3S,4R)-3-fluoro-1-[4-({8-[(2R,3S)-3-(methanesulfonylmethyl)-2-methylazetidin-1-yl]-5-(propan-2-yl)isoquinolin-3-yl}amino)pyrimidin-2-yl]piperidin-4-yl]oxy}propan-2-ol or (2R)-1-{[(3S,4R)-3-fluoro-1-[4-({8-[(2R,3S)-3-(methanesulfonylmethyl)-2-methylazetidin-1-yl]-5-(propan-2-yl)isoquinolin-3-yl}amino)pyrimidin-2-yl]piperidin-4-yl]oxy}propan-2-ol]
[1]
  IC50: ≤ 0.015 µM
[2]; [3]
  IC50: ≤ 0.01 µM
